The IC50 is the point on the concentration scale where inhibition reaches its midpoint.

For 23 molecules, IC50 results are on record in patent US9242996B2 (Novartis AG, priority 2013, dated 2016).

T1 sequence (P28482 whole entry): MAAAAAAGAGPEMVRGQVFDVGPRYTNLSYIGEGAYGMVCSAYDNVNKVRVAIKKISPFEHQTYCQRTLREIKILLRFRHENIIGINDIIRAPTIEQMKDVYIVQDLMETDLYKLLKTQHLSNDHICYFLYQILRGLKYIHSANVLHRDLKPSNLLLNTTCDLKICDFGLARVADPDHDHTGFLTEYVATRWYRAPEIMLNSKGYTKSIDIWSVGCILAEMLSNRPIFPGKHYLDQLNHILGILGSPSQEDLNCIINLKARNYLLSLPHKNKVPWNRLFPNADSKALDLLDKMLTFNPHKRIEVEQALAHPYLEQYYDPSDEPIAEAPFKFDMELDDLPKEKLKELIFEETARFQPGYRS

The first assay has as its target T1, activated ERK2 (Homo sapiens (Human), UniProt P28482). The assay can be described thus: Activated ERK2 kinase assay, ERK2 New conditions (AlphaScreen, ERKtide phosphorylation). As to conditions: 0.25 nM ERK2, 200 nM ERKtide peptide, 35 μM ATP, 30 min preincubation. In kind it is biochemical. Here is the method:
The assay is carried out in 50 mM HEPES [pH 7.5], 5 mM MgCl2, 1 mM DTT, 0.01% Tween-20, 0.05% BSA using 0.25 nM ERK2, 200 nM ERKtide peptide and 35 μM ATP (all concentrations are final in the reaction) in a total volume of 10.25 μL. […] Compound dilution series are prepared in 100% DMSO. ERK2 is preincubated with compounds for 30 minutes at ambient temperature. Reaction is initiated by addition of a substrate cocktail of ERKtide peptide and ATP and is allowed to proceed for 2-3 hours at ambient temperature. Reaction is terminated by addition of 10 μL of a 2× stop buffer consisting of 100 mM Tris-Cl [pH 7.5], 25 mM EDTA, 0.01% Tween 20, 10 μg/mL of AlphaScreen Protein A Acceptor Beads, 10 μg/mL of Streptavidin Donor Beads (PerkinElmer, Waltham, Mass.), and 1.4 μg/mL phospho-EGF Receptor (Thr669) antibody (Cat #3056, Cell Signaling Technology, Danvers, Mass.). Terminated reactions are read, after overnight incubation in the dark, on an EnVision Multilabel Plate Reader (PerkinElmer, Waltham, Mass.), with excitation and emission wavelengths set to 680 nm and 570 nm, respectively. IC50 values are determined using a four-parameter fit.
On the technique in general: Bead proximity is the source of the signal in Alpha formats.
Consider `C[C@@H](NC(=O)c1ccc(-c2cc(C3CCC(=O)NC3)cnc2N)cc1F)c1cccc(Cl)c1` (mixture of isomers) [Example 119, 4-(2-amino-5-(6-oxopiperidin-3-yl)pyridin-3-yl)-N-((R)-1-(3-chlorophenyl)ethyl)-2-fluorobenzamide], for which the IC50 was found to be 0.549 nM. `COC1CCCC(c2cnc(N)c(-c3ccc(C(=O)N[C@H](CO)c4cccc(Cl)c4)c(F)c3)n2)C1` (mixture of isomers) [Example 123, cis-4-(3-amino-6-(3-methoxycyclohexyl)pyrazin-2-yl)-N-((S)-1-(3-chlorophenyl)-2-hydroxyethyl)-2-fluorobenzamide] yielded an IC50 of 0.593 nM. `Nc1ncc(C2CCS(=O)(=O)C2)cc1-c1ccc(C(=O)NCc2ccccc2)c(F)c1` (racemic) [Example 4, 4-(2-amino-5-(1,1-dioxidotetrahydrothiophen-3-yl)pyridin-3-yl)-N-benzyl-2-fluorobenzamide] displayed a half-inhibitory concentration (IC50) of 315 nM. Molecule `Nc1ncc([C@H]2CCC[C@@H](O)C2)nc1-c1ccc(C(=O)NCc2ccccc2)c(F)c1` (racemic) [Example 12, (+/−)-4-(3-amino-6-((1S,3R)-3-hydroxycyclohexyl)pyrazin-2-yl)-N-benzyl-2-fluorobenzamide] came in with an IC50 of 39.6 nM. On the same count and under the same terms, then `CS(=O)(=O)[C@@H]1CCC[C@@H](c2cnc(N)c(-c3ccc(C(=O)NCc4ccccc4)c(F)c3)n2)C1` (racemic) [Example 13, (+/−)-4-(3-amino-6-((1R,3R)-3-(methylsulfonyl)cyclohexyl)pyrazin-2-yl)-N-benzyl-2-fluorobenzamide], with 361 nM. On the same count and under the same terms, next, `Nc1ncc(C2CCOCC2)nc1-c1ccc(C(=O)NC(c2ccccc2)C(F)F)c(F)c1` (racemic) [Example 50, (+/−)-4-(3-amino-6-(tetrahydro-2H-pyran-4-yl)pyrazin-2-yl)-N-(2,2-difluoro-1-phenylethyl)-2-fluorobenzamide]: 8.39 nM; `Nc1ncc(C2CCOCC2)nc1-c1ccc(C(=O)NC(c2ccccc2)C(F)(F)F)c(F)c1` (racemic) [Example 51, (+/−)-4-(3-amino-6-(tetrahydro-2H-pyran-4-yl)pyrazin-2-yl)-2-fluoro-N-(2,2,2-trifluoro-1-phenylethyl)benzamide]: 27 nM.

The molecule `CC(CO)c1cnc(N)c(-c2ccc(C(=O)NCc3ccccc3)c(F)c2)n1` (racemic) [Example 115, (+/−)-4-(3-amino-6-(1-hydroxypropan-2-yl)pyrazin-2-yl)-N-benzyl-2-fluorobenzamide] returned a concentration for half-maximal inhibition (IC50) of 274 nM. On the same count and under the same terms, then `Nc1ncc(C2CCC(=O)NC2)nc1-c1ccc(C(=O)NCc2ccccc2)c(F)c1` (racemic) [Example 117, (+/−)-4-(3-amino-6-(6-oxopiperidin-3-yl)pyrazin-2-yl)-N-benzyl-2-fluorobenzamide], with 4.79 nM; and `Nc1ncc(C2CCC(=O)NC2)cc1-c1ccc(C(=O)NCc2ccccc2)c(F)c1` (racemic) [Example 118, (+/−)-4-(2-amino-5-(6-oxopiperidin-3-yl)pyridin-3-yl)-N-benzyl-2-fluorobenzamide], with 17.6 nM; and `CO[C@@H]1CCC[C@H](c2cnc(N)c(-c3ccc(C(=O)NCc4ccccc4)c(F)c3)n2)C1` (racemic) [Example 124, (+/−)-cis-4-(3-amino-6-(3-methoxycyclohexyl)pyrazin-2-yl)-N-benzyl-2-fluorobenzamide], with 62.6 nM.

Consider `Nc1ncc([C@@H]2CCS(=O)(=O)C2)cc1-c1ccc(C(=O)NCc2ccccc2)c(F)c1` (single isomer, unassigned) [Example 5], for which half-maximal inhibition (IC50) required 278 nM. Same read-out and setting: next, `Nc1ncc([C@H]2CCS(=O)(=O)C2)cc1-c1ccc(C(=O)NCc2ccccc2)c(F)c1` (single isomer, unassigned) [Example 6]: 354 nM; `CN(Cc1ncccn1)C(=O)c1ccc(-c2cc(C3CCOCC3)cnc2N)cc1F` [Example 3, 4-(2-amino-5-(tetrahydro-2H-pyran-4-yl)pyridin-3-yl)-2-fluoro-N-methyl-N-(pyrimidin-2-ylmethyl)benzamide]: 12300 nM.

The target in a further assay is T1, activated ERK2. The assay can be described thus: Activated ERK2 (20 pM) Kinase Assay (AlphaScreen, ERKtide phosphorylation). The assay is classed as biochemical. The conditions noted are these: 0.02 nM ERK2, 400 nM ERKtide peptide, 35 μM ATP, 30 min preincubation. A digest of the protocol: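 AlphaScreen read-out (anti-phospho-EGFR Thr669 antibody, protein A acceptor/streptavidin donor beads) of ERKtide (400 nM) phosphorylation by 20 pM activated ERK2 at 35 μM ATP.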
The molecule `CO[C@H]1CC[C@H](c2cnc(N)c(-c3ccc(C(=O)N[C@H](CO)c4cc(F)cc(Br)c4)c(F)c3)n2)C[C@@H]1O` [Example 469, 4-(3-amino-6-((1S,3S,4S)-3-hydroxy,4-methoxylcyclo-hexyl)pyrazin-2-yl)-2-fluoro-N-((S)-1-(3-fluoro-5-bromophenyl)-2-hydroxyethyl) benzamide] returned an IC50 of 0.136 nM. Same read-out and setting: next, `Nc1ncc([C@H]2CCC(F)(F)[C@H](O)C2)nc1-c1ccc(C(=O)N[C@H](CO)c2cccc(Cl)c2)c(F)c1` [Example 470, 4-(3-amino-6-((1S,3R)-4,4-difluoro-3-hydroxycyclo-hexyl)pyrazin-2-yl)-N-((S)-1-(3-chlorophenyl)-2-hydroxyethyl)-2-fluorobenzamide]: 0.221 nM; `Nc1ncc([C@@H]2CCC(F)(F)[C@H](O)C2)nc1-c1ccc(C(=O)N[C@H](CO)c2cccc(Cl)c2)c(F)c1` [Example 471, 4-(3-amino-6-((1R,3R)-4,4-difluoro-3-hydroxycyclo-hexyl)pyrazin-2-yl)-N-((S)-1-(3-chlorophenyl)-2-hydroxyethyl)-2-fluorobenzamide]: 0.483 nM.

The molecule `Nc1ncc([C@@H]2CCC(F)(F)[C@@H](O)C2)nc1-c1ccc(C(=O)N[C@H](CO)c2cccc(Cl)c2)c(F)c1` [Example 472, 4-(3-amino-6-((1R,3S)-4,4-difluoro-3-hydroxycyclo-hexyl)pyrazin-2-yl)-N-((S)-1-(3-chlorophenyl)-2-hydroxyethyl)-2-fluorobenzamide] came in with a concentration for half-maximal inhibition (IC50) of 0.179 nM. `Nc1ncc(C(=O)N2CCOCC2)nc1-c1ccc(C(=O)N[C@H](CO)c2cc(F)cc(Br)c2)c(F)c1` [Example 473, (S)-4-(3-amino-6-(morpholine-4-carbonyl)pyrazin-2-yl)-N-(1-(3-bromo-5-fluorophenyl)-2-hydroxyethyl)-2-fluorobenzamide] came in with a half-maximal inhibitory concentration (IC50) of 10.5 nM. This IC50 is about 59-fold higher than that of the molecule before. Still for that read-out and setting: then `Nc1ncc(C(=O)N2CCOCC2)cc1-c1ccc(C(=O)N[C@H](CO)c2cc(F)cc(Br)c2)c(F)c1` [Example 474, (S)-4-(2-amino-5-(morpholine-4-carbonyl)pyridin-3-yl)-N-(1-(3-bromo-5-fluorophenyl)-2-hydroxyethyl)-2-fluorobenzamide], with 1.56 nM; and `Nc1ncc(C(=O)N2CCC(CO)CC2)nc1-c1ccc(C(=O)N[C@H](CO)c2cc(F)cc(Br)c2)c(F)c1` [Example 475, (S)-4-(3-amino-6-(4-(hydroxymethyl)piperidine-1-carbonyl)pyrazin-2-yl)-N-(1-(3-bromo-5-fluorophenyl)-2-hydroxyethyl)-2-fluorobenzamide], with 9.68 nM; and `Nc1ncc(C(=O)N2CC(O)C2)nc1-c1ccc(C(=O)N[C@H](CO)c2cc(F)cc(Br)c2)c(F)c1` [Example 476, (S)-4-(3-amino-6-(3-hydroxyazetidine-1-carbonyl)pyrazin-2-yl)-N-(1-(3-bromo-5-fluorophenyl)-2-hydroxyethyl)-2-fluorobenzamide], with 2.02 nM. In the case of `Nc1ncc(C(=O)N2CCC(O)CC2)cc1-c1ccc(C(=O)N[C@H](CO)c2cc(F)cc(Br)c2)c(F)c1` [Example 477, (S)-4-(2-amino-5-(4-hydroxypiperidine-1-carbonyl)pyridin-3-yl)-N-(1-(3-bromo-5-fluorophenyl)-2-hydroxyethyl)-2-fluorobenzamide], the 50% inhibitory concentration (IC50) was 8.59 nM.
